Experimental data as given in patent US12453709B2, “Compositions and methods for treating autism” (priority 2013, dated 2025).

Tests used:
Format in all cases: in vivo, human
[1] = test system: male patients diagnosed with autism; assay: Study HT 02-121: Repetitive Behavior Scale-Revised (RBS-R); conditions: for RBS-R Compulsive Behavior Mean Change from Baseline / RBS-R Compulsive Behavior Treatment effect versus placebo / RBS-R Compulsive Behavior change, median / RBS-R Restricted Behavior Mean Change from Baseline / RBS-R Restricted Behavior Treatment effect versus placebo / RBS-R Restricted Behavior change, median / RBS-R Ritualistic Behavior Mean Change from Baseline / RBS-R Ritualistic Behavior Treatment effect versus placebo / RBS-R Ritualistic Behavior change, median / RBS-R Sameness Behavior Mean Change from Baseline / RBS-R Sameness Behavior Treatment effect versus placebo / RBS-R Sameness Behavior change, median / RBS-R Self Injurious Behavior Mean Change from Baseline / RBS-R Self Injurious Behavior Treatment effect versus placebo / RBS-R Self Injurious Behavior change, median / RBS-R Stereotypic Behavior Mean Change from Baseline / RBS-R Stereotypic Behavior Treatment effect versus placebo / RBS-R Stereotypic Behavior change, median / RBS-R Total Score Mean Change from Baseline / RBS-R Total Score Treatment effect versus placebo / RBS-R Total Score change, median: Week 4/LOCF
Description: (§1) This clinical study was a randomized double-blind, placebo-controlled two-cohort, 4-week dose-escalation study that incorporated two open-label treatment groups to assess the safety and efficacy of L1-79 100 mg and 200 mg TID in male patients between the ages of […] years of age diagnosed with autism. The first cohort of 20 patients was comprised of three groups of patients: The first group of five patients received open-label L1-79 100 mg TID and underwent PK and EKG assessments. The remaining two groups in this cohort consisted of 15 patients randomized on a 2:1 basis to receive L1-79 100 mg TID or placebo. The PK and safety data from the open-label L1-79 100 mg TID group was submitted to FDA for review and acceptance before the second cohort was enrolled. The second cohort was procedurally identical to the first. The second cohort of 20 patients was comprised of the same three groups of patients but a dose of 200 mg TID was used instead of 100 mg TID. The key inclusion criteria were as follows: (1) males between 13 and 21 years of age, (2) DSM-5 compliant diagnosis of autism spectrum disorder, confirmed by the Autistic Diagnosis Interview Review (ADIR), and by an ADOS-2 score consistent with a diagnosis of autism, (3) must have been stable on no more than one concomitant medication and no planned changes in psychosocial interventions during the study.
(§2) The primary efficacy endpoint was the determination of the clinical improvement by the investigator as documented by the Clinical Global Impression (CGI) rating scales. Additional efficacy endpoints included: (1) changes from baseline in the Socialization and Communication Domains of the Vineland Adaptive Behavior Scales, Second Edition (VABS II) parent/caregiver rating form, (2) changes from baseline in the ADOS-2 Total Score and subscores, (3) changes in the Social Responsiveness Scale, Second Edition (SRS-2) Total Score and subscales, (4) changes in the ABC-C domains, (5) changes in the Repetitive Behavior Scale-Revised (RBS-R) Total Score and subscales. Given the exploratory design of this study only descriptive statistics were planned.
(§3) In the preliminary study, all forms were completed at the study site in the presence of the investigator. In Cohort 1 of the present study, the VABS-II, SRS-2, ABC-C and RBS-R were filled out at home by the patient/patient's families prior to treatment visits and returned at treatment visits in order to expedite the execution of the study. […]

[2] = test system: male patients diagnosed with autism; assay: Study HT 02-121: Clinical Global Impression (CGI) rating scales; conditions: for CGI-I Mean Change from Baseline / CGI-I Treatment effect versus placebo / CGI-I change from Baseline, median / CGI-S Mean Change from Baseline / CGI-S Treatment effect versus placebo / CGI-S change from Baseline, median: Week 4/LOCF
Description: as §1
as §2, with “planned. […]” for “planned.”
Responder definitions for CGI-S were defined as improvement only (instead of improvement or no change) since, unlike the other measures which were performed weekly, the CGI-S requires the clinician to give an overall assessment of the patients' clinical symptom severity based on all of the outcome measures and their movement over the entirety of the study.

[3] = test system: male patients diagnosed with autism; assay: Study HT 02-121: Aberrant Behavior Checklist-Community (ABC-C); conditions: for ABC-C Hyperactivity and Noncompliance Mean Change from Baseline / ABC-C Hyperactivity and Noncompliance Treatment effect versus placebo / ABC-C Hyperactivity and Noncompliance change, median / ABC-C Inappropriate Speech Mean Change from Baseline / ABC-C Inappropriate Speech Treatment effect versus placebo / ABC-C Inappropriate Speech change, median / ABC-C Irritability and Agitation Mean Change from Baseline / ABC-C Irritability and Agitation Treatment effect versus placebo / ABC-C Irritability and Agitation change, median / ABC-C Lethargy and Social Withdrawal Mean Change from Baseline / ABC-C Lethargy and Social Withdrawal Treatment effect versus placebo / ABC-C Lethargy and Social Withdrawal change, median / ABC-C Stereotypic Behavior Mean Change from Baseline / ABC-C Stereotypic Behavior Treatment effect versus placebo / ABC-C Stereotypic Behavior change, median: Week 4/LOCF
Description: as §1, §2, §3

SMILES: CC(N)(Cc1ccc(O)cc1)C(=O)O (racemic) [L1-79, α-methyl-DL-tyrosine]
- RBS-R Compulsive Behavior Mean Change from Baseline ([1]; DB 100 mg TID): −1.2
- RBS-R Compulsive Behavior Treatment effect versus placebo ([1]; DB 100 mg TID): 0.3
- RBS-R Compulsive Behavior change, median ([1]; DB 100 mg TID): −2, 0, 1
- RBS-R Restricted Behavior Mean Change from Baseline ([1]; DB 100 mg TID): 1.3
- RBS-R Restricted Behavior Treatment effect versus placebo ([1]; DB 100 mg TID): 2.9
- RBS-R Restricted Behavior change, median ([1]; DB 100 mg TID): 0, 1, 1
- RBS-R Ritualistic Behavior Mean Change from Baseline ([1]; DB 100 mg TID): 0.1
- RBS-R Ritualistic Behavior Treatment effect versus placebo ([1]; DB 100 mg TID): 3.8
- RBS-R Ritualistic Behavior change, median ([1]; DB 100 mg TID): −1, 0, 2
- RBS-R Sameness Behavior Mean Change from Baseline ([1]; DB 100 mg TID): −0.7
- RBS-R Sameness Behavior Treatment effect versus placebo ([1]; DB 100 mg TID): 2.2
- RBS-R Sameness Behavior change, median ([1]; DB 100 mg TID): −1, −1, 0
- RBS-R Self Injurious Behavior Mean Change from Baseline ([1]; DB 100 mg TID): −2.2
- RBS-R Self Injurious Behavior Treatment effect versus placebo ([1]; DB 100 mg TID): −0.1
- RBS-R Self Injurious Behavior change, median ([1]; DB 100 mg TID): −2, 0, 0
- RBS-R Stereotypic Behavior Mean Change from Baseline ([1]; DB 100 mg TID): −0.6
- RBS-R Stereotypic Behavior Treatment effect versus placebo ([1]; DB 100 mg TID): −0.1
- RBS-R Stereotypic Behavior change, median ([1]; DB 100 mg TID): 0, 0, 0
- RBS-R Total Score Mean Change from Baseline ([1]; DB 100 mg TID): −3.2
- RBS-R Total Score Treatment effect versus placebo ([1]; DB 100 mg TID): 7.8
- RBS-R Total Score change, median ([1]; DB 100 mg TID): −6, −4, −1
- RBS-R Compulsive Behavior Mean Change from Baseline ([1]; DB 200 mg TID): −2.7
- RBS-R Compulsive Behavior Treatment effect versus placebo ([1]; DB 200 mg TID): −1.2
- RBS-R Compulsive Behavior change, median ([1]; DB 200 mg TID): −3, 0, 0
- RBS-R Restricted Behavior Mean Change from Baseline ([1]; DB 200 mg TID): −2.5
- RBS-R Restricted Behavior Treatment effect versus placebo ([1]; DB 200 mg TID): −1.0
- RBS-R Restricted Behavior change, median ([1]; DB 200 mg TID): −5, −1, 0
- RBS-R Ritualistic Behavior Mean Change from Baseline ([1]; DB 200 mg TID): −3.1
- RBS-R Ritualistic Behavior Treatment effect versus placebo ([1]; DB 200 mg TID): 0.6
- RBS-R Ritualistic Behavior change, median ([1]; DB 200 mg TID): −5, −1, 0
- RBS-R Sameness Behavior Mean Change from Baseline ([1]; DB 200 mg TID): 4.2
- RBS-R Sameness Behavior Treatment effect versus placebo ([1]; DB 200 mg TID): −1.3
- RBS-R Sameness Behavior change, median ([1]; DB 200 mg TID): −9, 0, 0
- RBS-R Self Injurious Behavior Mean Change from Baseline ([1]; DB 200 mg TID): −1.7
- RBS-R Self Injurious Behavior Treatment effect versus placebo ([1]; DB 200 mg TID): 0.4
- RBS-R Self Injurious Behavior change, median ([1]; DB 200 mg TID): −1, 0, 0
- RBS-R Stereotypic Behavior Mean Change from Baseline ([1]; DB 200 mg TID): −1.8
- RBS-R Stereotypic Behavior Treatment effect versus placebo ([1]; DB 200 mg TID): −1.4
- RBS-R Stereotypic Behavior change, median ([1]; DB 200 mg TID): −5, 0, 0
- RBS-R Total Score Mean Change from Baseline ([1]; DB 200 mg TID): −16.1
- RBS-R Total Score Treatment effect versus placebo ([1]; DB 200 mg TID): −5.1
- RBS-R Total Score change, median ([1]; DB 200 mg TID): −28, −2, 0
- RBS-R Total Score compared to placebo ([1]; L1-79 200 mg): mean improvements
- RBS-R Total Score responders (improvement or stabilization of symptoms) ([1]; L1-79 200 mg, placebo 78%): 91%
- responder analysis for CGI-S ([2]; 100 mg and 200 mg groups vs placebo, Week 4): clear dose response trend of improvement
- mean improvement on overall CGI-S versus placebo and 100 mg groups ([2]; 200 mg group, Week 4 or LOCF): 0.5 point
- CGI-I Mean Change from Baseline ([2]; DB 100 mg TID): −0.6
- CGI-I Treatment effect versus placebo ([2]; DB 100 mg TID): −0.4
- CGI-I change from Baseline, median ([2]; DB 100 mg TID): −1, −1, 0
- CGI-S Mean Change from Baseline ([2]; DB 100 mg TID): −0.3
- CGI-S Treatment effect versus placebo ([2]; DB 100 mg TID): −0.0
- CGI-S change from Baseline, median ([2]; DB 100 mg TID): −1, −0, 0
- CGI-I Mean Change from Baseline ([2]; DB 200 mg TID): −0.5
- CGI-I Treatment effect versus placebo ([2]; DB 200 mg TID): −0.3
- CGI-I change from Baseline, median ([2]; DB 200 mg TID): −1, 0, 0
- CGI-S Mean Change from Baseline ([2]; DB 200 mg TID): −0.8
- CGI-S Treatment effect versus placebo ([2]; DB 200 mg TID): −0.5
- CGI-S change from Baseline, median ([2]; DB 200 mg TID): −2, −1, 0
- change in the CGI-S compared to baseline ([2]; less than one month of treatment, blinded assessment): nearly one-point change
- ABC-C Lethargy and Social Withdrawal / Inappropriate Speech: responder analyses vs placebo ([3]; 200 mg group): greater tendency for patients to respond with improvement or no worsening
- ABC-C Hyperactivity and Noncompliance Mean Change from Baseline ([3]; DB 100 mg TID): 0.4
- ABC-C Hyperactivity and Noncompliance Treatment effect versus placebo ([3]; DB 100 mg TID): 4.9
- ABC-C Hyperactivity and Noncompliance change, median ([3]; DB 100 mg TID): 0, 0, 3
- ABC-C Inappropriate Speech Mean Change from Baseline ([3]; DB 100 mg TID): 0.0
- ABC-C Inappropriate Speech Treatment effect versus placebo ([3]; DB 100 mg TID): 1.6
- ABC-C Inappropriate Speech change, median ([3]; DB 100 mg TID): −2, 0, 1
- ABC-C Irritability and Agitation Mean Change from Baseline ([3]; DB 100 mg TID): −0.9
- ABC-C Irritability and Agitation Treatment effect versus placebo ([3]; DB 100 mg TID): 2.5
- ABC-C Irritability and Agitation change, median ([3]; DB 100 mg TID): −2, −1, 0
- ABC-C Lethargy and Social Withdrawal Mean Change from Baseline ([3]; DB 100 mg TID): −1.6
- ABC-C Lethargy and Social Withdrawal Treatment effect versus placebo ([3]; DB 100 mg TID): 3.9
- ABC-C Lethargy and Social Withdrawal change, median ([3]; DB 100 mg TID): −2, −1, 1
- ABC-C Stereotypic Behavior Mean Change from Baseline ([3]; DB 100 mg TID): 1.9
- ABC-C Stereotypic Behavior Treatment effect versus placebo ([3]; DB 100 mg TID): 2.5
- ABC-C Stereotypic Behavior change, median ([3]; DB 100 mg TID): 0, 0, 4
- ABC-C Hyperactivity and Noncompliance Mean Change from Baseline ([3]; DB 200 mg TID): −4.0
- ABC-C Hyperactivity and Noncompliance Treatment effect versus placebo ([3]; DB 200 mg TID): 0.5
- ABC-C Hyperactivity and Noncompliance change, median ([3]; DB 200 mg TID): −7, −1, 0
- ABC-C Inappropriate Speech Mean Change from Baseline ([3]; DB 200 mg TID): −2.0
- ABC-C Inappropriate Speech Treatment effect versus placebo ([3]; DB 200 mg TID): −0.4
- ABC-C Inappropriate Speech change, median ([3]; DB 200 mg TID): −4, −1, 0
- ABC-C Irritability and Agitation Mean Change from Baseline ([3]; DB 200 mg TID): −2.2
- ABC-C Irritability and Agitation Treatment effect versus placebo ([3]; DB 200 mg TID): 1.2
- ABC-C Irritability and Agitation change, median ([3]; DB 200 mg TID): −7, −2, 0
- ABC-C Lethargy and Social Withdrawal Mean Change from Baseline ([3]; DB 200 mg TID): −4.5
- ABC-C Lethargy and Social Withdrawal Treatment effect versus placebo ([3]; DB 200 mg TID): 1.0
- ABC-C Lethargy and Social Withdrawal change, median ([3]; DB 200 mg TID): −9, −2, 0
- ABC-C Stereotypic Behavior Mean Change from Baseline ([3]; DB 200 mg TID): −1.7
- ABC-C Stereotypic Behavior Treatment effect versus placebo ([3]; DB 200 mg TID): −1.1
- ABC-C Stereotypic Behavior change, median ([3]; DB 200 mg TID): −3, −1, 0
- patients with stability or improvement of ABC-C social and speech domains ([3]; L1-79 200 mg): 90 to 100%
